In patent US4877893A, “Process for the preparation of 2-(O-alkyl)-2-thio-1,3,2-oxathiophospholanes” (priority 1987, dated 1989):

Experiments:
Experiment in all cases: Fungicidal effect on infected agar nutrient media, colony diameter
Type in all cases: cell-based
[1] = test system: Alternaria tenuis; settings: 5th day after treatment, untreated control 36.8
Procedure: (§1) Agar nutrient media (Diameter 70 MM, thickness 10 mm) infected by Sclerotonia sclerotinia suspension are treated with 20 EC formulations prepared according to Example 27 and comprising 1, 10, 100 and 1000 ppm, respectively of the active ingredient of the Formula I. The fungicidal effect of the compositions is evaluated on the 3rd day after treatment by measuring the diameter of the Fungi colonies.
The series of measurements according to Example 35 is carried out except that the agar nutrient media are infected by Alternaria Tenius and evaluation is accomplished on the 5th day after treatment.

[2] = test system: Sclerotinia sclerotinia; settings: 3rd day after treatment, untreated control 41.7
Procedure: as §1

[3] = test system: Penicillium cyclopium; settings: 7th day after treatment, untreated 26.5
Procedure: as §1
The series of measureents described in Example 35 is carried out except that the agar nutrient media are infected by a Penicillium cyclopium Fungi strain and the test is evaluated on the 7th day after treatment.

Row | SMILES | Diameter of colony (mm) ([1]; 1 ppm) | Diameter of colony (mm) ([1]; 10 ppm) | Diameter of colony (mm) ([1]; 100 ppm) | Diameter of colony (mm) ([1]; 1000 ppm) | Diameter of colony (mm) ([2]; 1 ppm) | Diameter of colony (mm) ([2]; 10 ppm) | Diameter of colony (mm) ([2]; 100 ppm) | Diameter of colony (mm) ([2]; 1000 ppm) | Diameter of colony (mm) ([3]; 1 ppm) | Diameter of colony (mm) ([3]; 10 ppm) | Diameter of colony (mm) ([3]; 100 ppm) | Diameter of colony (mm) ([3]; 1000 ppm)
1 | CC(CBr)OP1(=S)OC(C)CS1 (stereo not drawn) [Compound 20] | 33.2 | 25.0 | 5.0 | 0 | 34.9 | 28.2 | 1.6 | 0 | 20.1 | 17.7 | 4.1 | 0
2 | CC(CI)OP1(=S)OC(C)CS1 (stereo not drawn) [Compound 21, 2-(0-1'-methyl-2'-iodoethyl)-2-thio-5-methyl-1,3,2-oxathiophospholane] | 30.9 | 24.2 | 7.2 | 0 | 33.8 | 25.8 | 2.50 | 0 | 23.7 | 20.0 | 6.9 | 0
3 | CC(Cl)COP1(=S)OC(C)CS1 (stereo not drawn) [Compound 22, 2-(0-2'-methyl-2'-chloroethyl)-2-thio-5-methyl-1,3,2-oxathiophospholane] | 34.4 | 26.1 | 8.7 | 0 | 37.8 | 30.1 | 2.9 | 0 | 24.6 | 16.2 | 6.7 | 0
4 | CC(Br)COP1(=S)OC(C)CS1 (stereo not drawn) [Compound 23] | 33.8 | 24.1 | 5.2 | 0 | 36.9 | 29.7 | 3.6 | 0 | 22.6 | 15.8 | 4.3 | 0
5 | CC(I)COP1(=S)OC(C)CS1 (stereo not drawn) [Compound 24] | 34.8 | 25.5 | 6.1 | 0 | 38.1 | 29.0 | 3.2 | 0 | 24.2 | 15.0 | 5.9 | 0
6 | CC(Cl)COP1(=S)OCC(C)S1 (stereo not drawn) [Compound 25] | 33.8 | 24.0 | 6.5 | 0 | 38.8 | 30.3 | 1.0 | 0 | 26.0 | 19.8 | 7.8 | 0
7 | CC(Br)COP1(=S)OCC(C)S1 (stereo not drawn) [Compound 26] | 34.2 | 21.1 | 6.2 | 0 | 40.9 | 32.1 | 1.6 | 0 | 20.5 | 18.8 | 8.5 | 0
8 | CC(I)COP1(=S)OCC(C)S1 (stereo not drawn) [Compound 27] | 33.5 | 22.4 | 8.8 | 0 | 41.2 | 28.6 | 1.4 | 0 | 23.8 | 17.5 | 4.6 | 0
9 | CC(Cl)C(C)OP1(=S)OCCS1 (stereo not drawn) [Compound 28] | 34.2 | 22.4 | 4.8 | 0 | 33.6 | 27.4 | 0 | 0 | 18.2 | 14.7 | 5.7 | 0
10 | CC(Br)C(C)OP1(=S)OCCS1 (stereo not drawn) [Compound 29] | 33.2 | 23.6 | 6.5 | 0 | 31.9 | 25.2 | 1.2 | 0 | 25.0 | 19.2 | 8.0 | 0
11 | CC(I)C(C)OP1(=S)OCCS1 (stereo not drawn) [Compound 30] | 30.1 | 26.7 | 7.2 | 0 | 34.8 | 30.0 | 0 | 0 | 21.2 | 20.0 | 7.2 | 0
12 | CC1COP(=S)(OC(C)C(C)Cl)S1 (stereo not drawn) [Compound 31] | 36.0 | 23.6 | 8.1 | 0 | 37.4 | 29.2 | 4.0 | 0 | 23.6 | 14.9 | 9.0 | 0
13 | CC1COP(=S)(OC(C)C(C)Br)S1 (stereo not drawn) [Compound 32] | 31.2 | 27.4 | 7.2 | 0 | 38.9 | 30.0 | 3.2 | 0 | 19.4 | 16.7 | 7.2 | 0
